# According to patent US8900600B2, “Identification, optimization and use of cryptic HLA-A24 epitopes for immunotherapy” (VAXON Biotech, priority 2009, dated 2014):
# Legend:
# [1] = system: HLA-A*2402 transgenic mice; test: Cross-recognition assay: CTL from mice vaccinated with optimized peptide tested on targets loaded with native peptide; type: in vivo; details: Table 7, CTL of mice vaccinated with the optimized peptide
# Method: FIG. 2: Panels 2A-2F of FIG. 2 show immunogenicity of HLA-A*2402 restricted optimized cryptic peptides. HLA-A*2402 transgenic mice were vaccinated with the optimized peptide following the described protocol and generated CTL were tested against T2-A24 targets loaded with the optimized (immunogenicity), the corresponding native (native peptide cross recognition) or an irrelevant (NR) peptide as indicated. Percentage of specific lysis was determined as: Lysis=(Experimental Release−Spontaneous Release)/(Maximal Release−Spontaneous Release)×100. Four CTL dilutions, corresponding to four CTL/target cells ratio were tested.
# (§1) The transgenic mice used in the described experiments were obtained by crossing HLA-A24 transgenic mice previously described (Barra et al., 1993) and H2 Kb^− H2 Db^− knock out mice, transgenic for both human β2 microglobulin and CD8α chain (Perarnau et al., 1999).
# Mice were injected subcutaneously with 100 μg of optimized peptide emulsified in Incomplete Freund's Adjuvant (IFA) in the presence of 150 μg of the I-A^b restricted HBVcore128 T helper epitope (TPPAYRPPNAPIL, SEQ ID NO: 112). After 15 days, 5×10^7 spleen cells were stimulated firstly in vitro with the optimized peptide (10 μM), and secondly on day 6 of culture with the corresponding native peptide. On day 13, the bulk responder populations were tested for specific cytotoxicity against targets cells expressing HLA-A*2402 and loaded with the optimized, the native or an irrelevant peptide.
# (§2) Targets were labelled with 100 μCi of Cr^51 for 60 min, plated in 96-well V-bottomed plates (3×10^3 cell/well in 100 μL of RPMI 1640 medium) and, when necessary, pulsed with optimized or native peptides (1 μM) at 37° C. for 2 hours. Four dilutions of effector cells were then added in the wells and incubated at 37° C. for 4 hours. Percentage of specific lysis was determined as: Lysis=(Experimental Release−Spontaneous Release)/(Maximal Release−Spontaneous Release)×100.
# HLA-A*2402 = HLA-A*2402 (Homo sapiens, UniProt P04439, D101N/D140Y/D185E/E176V/E190D/F33S/G103R/G107R/I119L/I121M/I306V/K335N/L105A/L180Q/L300P/N151K/N90K/Q86E/Q94H/R106L/R138H/R89G/T104I/T345S/V100E/W191G/Y123F); test: Measurement of peptide relative affinity to HLA-A*2402 (surface expression on T2-A24 cells); type: cell-based; details: T2-A24 cells, 16 hours at 37° C., relative to reference peptide standard A24; concentration inducing 30% of HLA-A*2402 expression
# Method: Measurement of Peptide Relative Affinity to HLA-A*2402.
# The protocol used has been described previously (Rohrlich et al., 2003). Briefly, T2-A24 cells were incubated at 37° C. for 16 hours with peptides concentrations ranging from 100 μM to 0.1 μM, and then stained with 0041HA monoclonal antibody (mAb)(One Lambda, Inc.) to quantify the surface expression of HLA-A*2402. For each peptide concentration, the HLA-A*2402 specific staining was calculated as the percentage of staining obtained with 100 μM of the reference peptide standard A24 (AYIDNYNKF, SEQ ID NO: 111). The relative affinity (RA) was determined as: RA=(Concentration of each peptide that induces 30% of HLA-A*2402-expression/Concentration of the reference peptide that induces 30% of HLA-A*2402 expression).
# [2] = system: HLA-A*2402 transgenic mice; test: CTL induction in vivo in HLA-A*2402 transgenic mice (immunogenicity, Cr51 cytotoxic assay); parameters: key to Immunogenicity: (−) means that none of the mice vaccinated with the corresponding native peptides develops a specific immune response; (+) that less to 50% of vaccinated mice responded; (++) that more that 50% responded; key to Immunogenicity (class): −: (-) means that none of the mice vaccinated with the corresponding native peptides develops a specific immune response; (+) that less to 50% of vaccinated mice responded; (++) that more that 50% responded; details: for Immunogenicity: Table 5, mice vaccinated with 100 μg native peptide in IFA, share of mice with specific immune response; for Immunogenicity (X/Y): X mice develop a specific response for a total of Y mice vaccinated / Immunogenicity (class): Table 7, mice vaccinated with the native or modified peptide; for Immunogenicity (class): share of mice responding
# Method: FIG. 1: Panels 1A-1F of FIG. 1 show immunogenicity of HLA-A*2402 cryptic peptides. HLA-A*2402 transgenic mice were vaccinated with the cryptic peptides following the described protocol and generated CTL were tested against T2-A24 targets loaded with peptide as indicated (NR non relevant peptide). Percentage of specific lysis was determined as: Lysis=(Experimental Release−Spontaneous Release)/(Maximal Release−Spontaneous Release)×100. Four CTL dilutions, corresponding to four CTL/target cells ratio were tested.
# as §1
# Mice were injected subcutaneously with 100 μg of peptide emulsified in Incomplete Freund's Adjuvant (IFA) in the presence of 150 μg of the I-A^b restricted HBVcore128 T helper epitope (TPPAYRPPNAPIL, SEQ ID NO: 112). After 15 days, 5×10^7 spleen cells were stimulated twice in vitro with peptide (10 μM), at 6 days interval. On day 13 of culture, the bulk responder populations were tested for specific cytotoxicity against target cells expressing HLA-A*2402 and loaded with the same peptide.
# as §2
Sequence,Native peptide cross recognition (X/Y): X mice develop a specific response for a total of Y mice vaccinated [1],Native peptide cross recognition (class) [1],RA (Relative Affinity) (HLA-A*2402),Immunogenicity [2],Immunogenicity (X/Y): X mice develop a specific response for a total of Y mice vaccinated [2],Immunogenicity (class) [2]
"PYGVLLKTH (Cryptic HLA-A2402 restricted peptide) [TERT 403, native cryptic HLA-A*2402 restricted peptide]",3/15,+ ((+) that less to 50% of vaccinated mice responded),− ((−) means RA > 100),−,0/3,−
"PYMRQFVAH (Cryptic HLA-A2402 restricted peptide) [TERT 770, native cryptic HLA-A*2402 restricted peptide]",5/18,+ ((+) that less to 50% of vaccinated mice responded),+/− ((+/−) 10 < RA < 100),−,0/3,−
